# Experimental data as given in patent US20260355165A1, “2,3,4,9-TETRAHYDRO-1H-PYRIDO[3,4-B]INDOLE DERIVATIVES AS ESTROGEN RECEPTOR MODULATORS FOR THE TREATMENT OF CANCER” (Olema Pharmaceuticals, Inc., priority 2022, published 2026).
# Target: T1, estrogen receptor (Homo sapiens, UniProt P03372)
# T1 construct: endogenous in cells; host or cells: ECC-1 cells
# T1 sequence (P03372 1-595): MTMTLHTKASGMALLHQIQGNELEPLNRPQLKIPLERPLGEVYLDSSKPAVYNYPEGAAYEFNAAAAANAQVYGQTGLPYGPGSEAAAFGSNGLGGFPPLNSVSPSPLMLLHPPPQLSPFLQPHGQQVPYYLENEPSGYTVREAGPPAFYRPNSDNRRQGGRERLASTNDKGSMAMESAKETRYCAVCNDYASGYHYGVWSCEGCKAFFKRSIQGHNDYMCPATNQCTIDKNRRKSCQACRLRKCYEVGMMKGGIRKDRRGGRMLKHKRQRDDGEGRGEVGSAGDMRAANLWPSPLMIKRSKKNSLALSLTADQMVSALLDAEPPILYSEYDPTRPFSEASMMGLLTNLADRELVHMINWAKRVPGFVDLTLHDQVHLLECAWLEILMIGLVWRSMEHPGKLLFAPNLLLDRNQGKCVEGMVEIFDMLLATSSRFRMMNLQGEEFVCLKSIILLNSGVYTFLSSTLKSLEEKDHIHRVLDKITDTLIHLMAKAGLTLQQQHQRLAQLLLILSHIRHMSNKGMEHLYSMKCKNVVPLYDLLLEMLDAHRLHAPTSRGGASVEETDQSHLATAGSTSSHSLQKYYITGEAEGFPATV
# Test: AP assay (alkaline phosphatase activity in ECC-1 cells), agonist mode (absence of E2) and antagonist mode (presence of 500 pM E2)
# Format: cell-based
# Settings: 3 days, AP activity normalized to 500 pM E2 alone, agonist and antagonist mode combined
# Procedure: ECC-1 cells were trypsinized and resuspended in hormone-depleted media and plated at a density of 15 k cells per well into a 96-well plate for at least 4 hours. Cells were treated with test compounds in the absence of E2 (for agonist mode) or in the presence of 500 pM E2 (for antagonist mode) for 3 days and plates were subsequently frozen at −80 °C. Thawed plates were incubated with a chromogenic substrate of AP, p-nitrophenyl phosphate (Thermo Fisher Scientific), for 40 minutes at 42 °C, and absorbances were read at 405 nm. AP activity was normalized to the activity of 500 pM E2 alone.
# The compound numbers correspond to the compound numbers of Table 1 and 2. Compounds having an activity designated as “+” provided estrogen receptor agonism having (i) at least 80% increase in the E2-normalized signal in the AP assay (agonist mode) and (ii) no more than 80% reduction in the E2-normalized signal in the AP assay (antagonist mode). Compounds having an activity designated as “++” provided estrogen receptor antagonism having (i) between 10% and 80% increase in the E2-normalized signal in the AP assay (agonist mode) and (ii) between 10% and 80% reduction in the E2-normalized signal in the AP assay (antagonist mode).
row,Compound,"Activity (estrogen receptor modulation, e.g., agonism and antagonism)"
1,"C[C@@H]1Cc2c([nH]c3ccccc23)[C@@H](c2ccc3oc(CN4CC(CF)C4)nc3c2)N1CC(C)(C)F [Compound I-75, 2-[[3-(fluoromethyl)azetidin-1-yl]methyl]-5-[(1R,3R)-2-(2-fluoro-2-methyl-propyl)-3-methyl-1,3,4,9-tetrahydropyrido[3,4-b]indol-1-yl]-1,3-benzoxazole]",+++ (estrogen receptor antagonism (i) with pIC50 greater than 7.5 and at least a 10% reduction in the E2-normalized signal in the AP assay (antagonist mode); and (ii) no more than 10% increase in E2-normalized signal in the AP assay (agonist mode))
2,"C[C@@H]1Cc2c([nH]c3ccccc23)[C@@H](c2ccc3c(cnn3C3CN(CCCF)C3)c2)N1CC(F)(F)CO (racemic) [Compound I-106, 2,2-difluoro-3-[rac-(1R,3R)-1-[1-[1-(3-fluoropropyl)azetidin-3-yl]indazol-5-yl]-3-methyl-1,3,4,9-tetrahydropyrido[3,4-b]indol-2-yl]propan-1-ol]",++ (estrogen receptor antagonism having (i) between 10% and 80% increase in the E2-normalized signal in the AP assay (agonist mode) and (ii) between 10% and 80% reduction in the E2-normalized signal in the AP assay (antagonist mode))
3,"CCC1CN(Cc2cc3cc([C@@H]4c5[nH]c6ccccc6c5C[C@@H](C)N4CC(C)(C)F)ccc3[nH]2)C1 [Compound I-91, (1R,3R)-1-[2-[(3-ethylazetidin-1-yl)methyl]-1H-indol-5-yl]-2-(2-fluoro-2-methyl-propyl)-3-methyl-1,3,4,9-tetrahydropyrido[3,4-b]indole]",+ (estrogen receptor agonism having (i) at least 80% increase in the E2-normalized signal in the AP assay (agonist mode) and (ii) no more than 80% reduction in the E2-normalized signal in the AP assay (antagonist mode))
4,"C[C@@H]1Cc2c([nH]c3ccccc23)[C@@H](c2ccc3[nH]c(CN4CC(C)(F)C4)cc3c2)N1CC(C)(C)F [Compound I-102, (1R,3R)-1-[2-[(3-fluoro-3-methyl-azetidin-1-yl)methyl]-1H-indol-5-yl]-2-(2-fluoro-2-methyl-propyl)-3-methyl-1,3,4,9-tetrahydropyrido[3,4-b]indole]",++ (estrogen receptor antagonism having (i) between 10% and 80% increase in the E2-normalized signal in the AP assay (agonist mode) and (ii) between 10% and 80% reduction in the E2-normalized signal in the AP assay (antagonist mode))
5,"CCCN(C)Cc1ccc2c([C@@H]3c4[nH]c5ccccc5c4C[C@@H](C)N3CC(C)(C)F)n[nH]c2c1 [Compound I-13, N-[[3-[(1S,3R)-2-(2-fluoro-2-methyl-propyl)-3-methyl-1,3,4,9-tetrahydropyrido[3,4-b]indol-1-yl]-1H-indazol-6-yl]methyl]-N-methyl-propan-1-amine]",+ (estrogen receptor agonism having (i) at least 80% increase in the E2-normalized signal in the AP assay (agonist mode) and (ii) no more than 80% reduction in the E2-normalized signal in the AP assay (antagonist mode))
6,"CC1CN(Cc2nc3cc([C@@H]4c5[nH]c6ccccc6c5C[C@@H](C)N4CC(C)(C)F)ccc3[nH]2)C1 [Compound I-71, (1R,3R)-2-(2-fluoro-2-methyl-propyl)-3-methyl-1-[2-[(3-methylazetidin-1-yl)methyl]-3H-benzimidazol-5-yl]-1,3,4,9-tetrahydropyrido[3,4-b]indole]",++ (estrogen receptor antagonism having (i) between 10% and 80% increase in the E2-normalized signal in the AP assay (agonist mode) and (ii) between 10% and 80% reduction in the E2-normalized signal in the AP assay (antagonist mode))
7,"C[C@@H]1Cc2c([nH]c3ccccc23)[C@@H](c2ccc3[nH]c(CN4CC(C#N)C4)cc3c2)N1CC(C)(C)F [Compound I-50, 1-[[5-[(1R,3R)-2-(2-fluoro-2-methyl-propyl)-3-methyl-1,3,4,9-tetrahydropyrido[3,4-b]indol-1-yl]-1H-indol-2-yl]methyl]azetidine-3-carbonitrile]",+ (estrogen receptor agonism having (i) at least 80% increase in the E2-normalized signal in the AP assay (agonist mode) and (ii) no more than 80% reduction in the E2-normalized signal in the AP assay (antagonist mode))
8,"C[C@@H]1Cc2c([nH]c3ccccc23)[C@@H](c2c[nH]c3c(F)c(CN4CC(CF)C4)ccc23)N1CC(C)(C)F [Compound I-29, (1R,3R)-1-[7-fluoro-6-[[3-(fluoromethyl)azetidin-1-yl]methyl]-1H-indol-3-yl]-2-(2-fluoro-2-methyl-propyl)-3-methyl-1,3,4,9-tetrahydropyrido[3,4-b]indole]",++ (estrogen receptor antagonism having (i) between 10% and 80% increase in the E2-normalized signal in the AP assay (agonist mode) and (ii) between 10% and 80% reduction in the E2-normalized signal in the AP assay (antagonist mode))
9,"C[C@@H]1Cc2c([nH]c3ccccc23)[C@@H](c2ccc3[nH]c(CN4CC(C(C)(C)O)C4)cc3c2)N1CC(C)(C)F [Compound I-48, 2-[1-[[5-[(1R,3R)-2-(2-fluoro-2-methyl-propyl)-3-methyl-1,3,4,9-tetrahydropyrido[3,4-b]indol-1-yl]-1H-indol-2-yl]methyl]azetidin-3-yl]propan-2-ol]",+ (estrogen receptor agonism having (i) at least 80% increase in the E2-normalized signal in the AP assay (agonist mode) and (ii) no more than 80% reduction in the E2-normalized signal in the AP assay (antagonist mode))
10,"C[C@@H]1Cc2c([nH]c3ccccc23)[C@@H](c2ccc3[nH]c(CN4CC(F)(F)C4)cc3c2)N1CC(C)(C)F [Compound I-101, (1R,3R)-1-[2-[(3,3-difluoroazetidin-1-yl)methyl]-1H-indol-5-yl]-2-(2-fluoro-2-methyl-propyl)-3-methyl-1,3,4,9-tetrahydropyrido[3,4-b]indole]",++ (estrogen receptor antagonism having (i) between 10% and 80% increase in the E2-normalized signal in the AP assay (agonist mode) and (ii) between 10% and 80% reduction in the E2-normalized signal in the AP assay (antagonist mode))
11,"C[C@@H]1Cc2c([nH]c3ccccc23)[C@@H](c2ccc3[nH]c(CN4CC(C(F)F)C4)cc3c2)N1CC(C)(C)F [Compound I-100, (1R,3R)-1-[2-[[3-(difluoromethyl)azetidin-1-yl]methyl]-1H-indol-5-yl]-2-(2-fluoro-2-methyl-propyl)-3-methyl-1,3,4,9-tetrahydropyrido[3,4-b]indole]",++ (estrogen receptor antagonism having (i) between 10% and 80% increase in the E2-normalized signal in the AP assay (agonist mode) and (ii) between 10% and 80% reduction in the E2-normalized signal in the AP assay (antagonist mode))
12,"C[C@@H]1Cc2c([nH]c3ccccc23)[C@@H](c2ccc3[nH]c(CN4CC5(COC5)C4)cc3c2)N1CC(C)(C)F [Compound I-54, 6-[[5-[(1R,3R)-2-(2-fluoro-2-methyl-propyl)-3-methyl-1,3,4,9-tetrahydropyrido[3,4-b]indol-1-yl]-1H-indol-2-yl]methyl]-2-oxa-6-azaspiro[3.3]heptane]",+ (estrogen receptor agonism having (i) at least 80% increase in the E2-normalized signal in the AP assay (agonist mode) and (ii) no more than 80% reduction in the E2-normalized signal in the AP assay (antagonist mode))
13,"C[C@@H]1Cc2c([nH]c3ccccc23)[C@@H](c2n[nH]c3cc(CO)ccc23)N1CC(C)(C)F [Compound I-2, [3-[(1S,3R)-2-(2-fluoro-2-methyl-propyl)-3-methyl-1,3,4,9-tetrahydropyrido[3,4-b]indol-1-yl]-1H-indazol-6-yl]methanol]",+ (estrogen receptor agonism having (i) at least 80% increase in the E2-normalized signal in the AP assay (agonist mode) and (ii) no more than 80% reduction in the E2-normalized signal in the AP assay (antagonist mode))
14,"C[C@@H]1Cc2c([nH]c3ccccc23)[C@@H](c2n[nH]c3cc(CN4CC(CF)C4)ccc23)N1CC(C)(C)F [Compound I-10, (1S,3R)-1-[6-[[3-(fluoromethyl)azetidin-1-yl]methyl]-1H-indazol-3-yl]-2-(2-fluoro-2-methyl-propyl)-3-methyl-1,3,4,9-tetrahydropyrido[3,4-b]indole]",+++ (estrogen receptor antagonism (i) with pIC50 greater than 7.5 and at least a 10% reduction in the E2-normalized signal in the AP assay (antagonist mode); and (ii) no more than 10% increase in E2-normalized signal in the AP assay (agonist mode))
